80 compounds from the METLIN SMRT retention time set (Domingo-Almenara et al. 2019) can be followed below.

The series in a line: gradient 5% acetonitrile 3 min, to 50% in 2 min, to 85% in 15 min, held 3 min, 100 µL/min. Particulars: column: Zorbax Extend-C18 2.1 x 50 mm; eluents: water / acetonitrile, 0.1% formic acid. Summed up:
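Each retention time is based on an adduct peak selected computationally and verified by manual inspection. Measurements used HPLC–quadrupole time-of-flight mass spectrometry in positive and negative ionization mode on mixtures of ~100 pure standards. Chromatography ran on a Zorbax Extend-C18 column (2.1 × 50 mm, 1.8 μm) at 100 μL/min with water and acetonitrile, each containing 0.1% formic acid, and dead and dwell volumes of 40 μL and 900 μL.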
`Cc1ccc(N2C(=O)CN(S(C)(=O)=O)CC2(C)C(=O)NCc2ccccc2)c(C)c1` (stereo not given): the RP-LC retention time is 838 s.

`CCN1CCN(c2nc(F)c(F)c(S(=O)(=O)CCN3C(=O)CCC3=O)c2F)CC1` registered an RP-LC retention time of 582 s.

`CCCN1C(=O)Cc2cc(C(=O)O)ccc21` displayed an RP-LC retention time of 643 s.

For `Clc1ccc(-c2ccnc3nc(-c4ccccc4)nn23)cc1`, the RP-LC retention time was 971 s.

With `O=C(NCCN1CCCCC1)C1CCN(c2nccnc2Sc2ccccc2)CC1`, the RP-LC retention time amounted to 666 s.

Compound `COC(=O)CCSCc1ccc(-c2onc(C)c2NC(=O)OC(C)c2ccccc2Cl)cc1` (stereo not given) had an RP-LC retention time of 1150 s.

Compound `CCOC(=O)C1CC(=O)c2cc(OC)c(OC)cc2C1` (stereo not given) gave an RP-LC retention time of 812 s.

Consider `COc1ccc(OC)c(NC(=O)C2CCCN2S(=O)(=O)c2cc3c(cc2C)NC(=O)C(C)O3)c1` (stereo not given), for which the RP-LC retention time came out at 830 s.

In turn, `Cc1noc(C)c1C1CCCN1C(=O)Cc1cccc(F)c1` (stereo not given) gave an RP-LC retention time of 777 s.

In turn, `O=C(NCc1ccco1)c1cc(N2C(=O)CCS2(=O)=O)ccc1Cl` came in with an RP-LC retention time of 675 s.

Consider `Cc1noc(C)c1S(=O)(=O)Nc1cc2c3c(c1)CC(=O)N3CCC2`, for which the RP-LC retention time came to 672 s.

In turn, `Cc1nnc2ccc(S(=O)(=O)N(Cc3cccc(F)c3)c3ccccc3)cn12` had an RP-LC retention time of 866 s.

As for `O=C1CC(c2noc(-c3ccccc3F)n2)CN1c1ccc(F)c(Cl)c1` (stereo not given), the RP-LC retention time came out at 1050 s.

The compound `O=C(Nc1cccc(F)c1)N1CCCC1c1nc(-c2ccccc2)no1` (stereo not given) yielded an RP-LC retention time of 964 s.

For `COc1ccc(-c2nnc(Cc3nc(-c4ccc(Cl)cc4)no3)o2)cc1`, the RP-LC retention time was determined as 1070 s.

For `O=c1c2cc(-c3ccc(F)cc3)nn2ccn1Cc1noc(CN2CCCCC2)n1`, the RP-LC retention time was determined as 656 s.

In the case of `Cc1cccc(-c2noc(C3CCCN3S(=O)(=O)c3ccc(Cl)cc3C)n2)c1` (stereo not given), the RP-LC retention time turned out to be 1300 s.

For the compound `O=C(c1ccc(OCC2CCCN2C(=O)C2CC2)cc1)N1CCCC1` (stereo not given), the RP-LC retention time amounted to 714 s.

For `Cn1c(C(=O)NCc2cc(F)ccc2F)cc2ccncc21`, the RP-LC retention time was determined as 622 s.

In turn, `CCCNc1nc(-c2ccccc2Cl)nc2ccccc12` showed an RP-LC retention time of 702 s.

The compound `O=C(Nc1cccc(Cl)c1F)N1CC(F)(F)C[C@H]1CN1CCCC1` returned an RP-LC retention time of 662 s.

`Cc1cc(C)c(C)c(S(=O)(=O)N2CCc3nc[nH]c3C2)c1C` registered an RP-LC retention time of 666 s.

In turn, `Cc1c(C(=O)N2CCN(C(=O)c3ccc(Br)o3)CC2)[nH]c2ccccc12` displayed an RP-LC retention time of 839 s.

In turn, `COc1ccc(-c2nnc(-c3cc(S(=O)(=O)NCC4CCCO4)ccc3Cl)o2)cc1` (stereo not given) gave an RP-LC retention time of 917 s.

The compound `CCOC(=O)c1cnc2nc(C)ccc2c1Nc1ccc(C)c(F)c1` came in with an RP-LC retention time of 736 s.

As to `O=S(=O)(Cc1ccc(Cl)cc1)c1nc2ccccc2nc1N1CCOCC1`, the RP-LC retention time came out at 756 s.

Compound `COC(=O)c1c(C)c(C(=O)C(C)N(C(=O)c2ccc(F)cc2)C(C)C)c(C)n1C` (stereo not given) gave an RP-LC retention time of 922 s.

The compound `CN(C)C(=O)CN1C(=O)CCSc2ccccc21` gave an RP-LC retention time of 665 s.

Turning to `CCN1CCN(c2nc(F)c(F)c(S(=O)(=O)CCNc3cccc4ccccc34)c2F)CC1`, the RP-LC retention time was found to be 697 s.

As for `O=C(Cn1cccc1-c1nc(-c2ccc3c(c2)OCO3)no1)Nc1cc(F)cc(F)c1`, the RP-LC retention time is 1060 s.

Compound `Cc1ccc(-c2cc3c(=O)n(Cc4noc(CN5CCN(C)CC5)n4)ccn3n2)cc1C` returned an RP-LC retention time of 662 s.

In turn, `CCOc1ccc(-c2noc(Cn3nc(-c4cccc(OC)c4)ccc3=O)n2)cc1` gave an RP-LC retention time of 1070 s.

Consider `Cc1cncn(CC(=O)Nc2ccccc2Cl)c1=O`, for which the RP-LC retention time came out at 608 s.

Compound `CCN1c2ccccc2C(=O)NC12CCN(C(=O)c1ccc3c(c1)OCO3)CC2` came in with an RP-LC retention time of 740 s.

As to `O=C(NCC1OCCc2ccccc21)C(=O)N1CCCCC1` (stereo not given), the RP-LC retention time was 716 s.

`CCn1cnc(S(=O)(=O)N2CCC(C(=O)NCC(C)c3ccccc3)CC2)c1` (stereo not given) returned an RP-LC retention time of 732 s.

Turning to `CN(C)C(=O)c1ccc2c(c1)nnn2CCNC(=O)Nc1cccc(Cl)c1`, the RP-LC retention time worked out at 684 s.

For the compound `Cc1sc2cc(C(=O)N3CCN(c4ccccc4)CC3)[nH]c2c1CN1CCOCC1`, the RP-LC retention time came out at 710 s.

As to `COc1cccc(CC(=O)N2CCC3(CC2)N=C(c2ccc(Cl)cc2)NO3)c1`, the RP-LC retention time came to 922 s.

On to `Cc1ccc(OCc2nc(-c3cccc(-c4ccnn4C)c3)no2)cc1`, for which the RP-LC retention time worked out at 1130 s.

`Cc1ccc(NC(=O)Cn2nc(C(=O)N3CCCC3)c3ccccc32)cc1F` showed an RP-LC retention time of 884 s.

The compound `COc1ccc(C2=C(C)C(N3CCC(C(=O)NC4CCCC4)CC3)=NS2(=O)=O)cc1` displayed an RP-LC retention time of 780 s.

`Cc1cccc(C(=O)N2C[C@@H](F)C[C@H]2C(=O)N2CCOCC2)c1` had an RP-LC retention time of 620 s.

As for `O=C(NC1CC1)c1csc(N2CCCCC2)n1`, the RP-LC retention time amounted to 853 s.

For `Cc1noc(COC2CCN(C(=O)NCCc3ccccc3)CC2)n1`, the RP-LC retention time turned out to be 694 s.

Compound `Cc1ccc(Cn2c(N3CCCC(C(=O)Nc4ccc(Cl)cc4)C3)nc3ccsc3c2=O)cc1` (stereo not given) had an RP-LC retention time of 1160 s.

`O=C(NCCn1c(-c2ccccc2)nc2cccnc21)Nc1ccccc1` yielded an RP-LC retention time of 674 s.

Compound `CCC(=O)N1CCN(c2nc(C)cc(N3CCCC3)n2)CC1` displayed an RP-LC retention time of 604 s.

`CC(=O)c1cccc(NC(=O)Cn2cnc3nc4c(cc3c2=O)CCCC4)c1` showed an RP-LC retention time of 674 s.

In the case of `CC(C)NC(=O)C1CCN(Cc2cc3ccccc3n2Cc2ccccc2)CC1`, the RP-LC retention time is 710 s.

The compound `CC1CCN(c2nc3c(c(=O)n(Cc4ccccc4Cl)c(=O)n3C)n2C)CC1` showed an RP-LC retention time of 1170 s.

In turn, `Cc1ccn2cc(-c3ccc(NC(=O)c4cc(Br)ccc4Cl)cc3)nc2n1` had an RP-LC retention time of 700 s.

Turning to `Cc1c(C(=O)NC(C)C)cnn1-c1cc(-c2nc(C(C)C)no2)ccn1`, the RP-LC retention time turned out to be 868 s.

With `COc1ccc(-c2nnc(SCc3cc(=O)n4c(C)csc4n3)o2)cc1`, the RP-LC retention time turned out to be 831 s.

`Cc1ccc(Cl)cc1-n1ncc2c(NCCN3CCOCC3)ncnc21` yielded an RP-LC retention time of 629 s.

For `Cc1ccc(-c2ncccc2CNS(=O)(=O)c2ccc(C)c(F)c2)cc1`, the RP-LC retention time was 769 s.

On to `Cc1ccc(NC(=O)N2CCC(c3cc(N)on3)CC2)cc1Cl`, for which the RP-LC retention time stood at 774 s.

Compound `Cc1ccc(NC(=O)c2cc(C)n3nccc3n2)cc1C` yielded an RP-LC retention time of 1030 s.

In turn, `CC(C)Cn1ccc2c(cc(C(=O)Nc3ccccc3Br)n2C)c1=O` returned an RP-LC retention time of 881 s.

In turn, `CC1=C(c2ccc(C(C)C)cc2)S(=O)(=O)N=C1N1CCC(C(=O)NCCc2ccco2)CC1` registered an RP-LC retention time of 947 s.

For `CN1C(=O)c2ccccc2Oc2ccc(C(=O)N3CCC4(CC3)OCCO4)cc21`, the RP-LC retention time was 741 s.

Compound `CCC(C(=O)Nc1ccc2ncnc(N3CCCC3)c2c1)c1ccccc1` (stereo not given) had an RP-LC retention time of 703 s.

In the case of `Cc1ncc2c(n1)C[C@@H]1CC[C@H]2N1C(=O)c1cccnc1`, the RP-LC retention time was 570 s.

In turn, `O=C(Cn1cccc(-c2nc(-c3ccc(Br)cc3)no2)c1=O)NCc1ccc(F)cc1` gave an RP-LC retention time of 952 s.

Compound `Cn1cc2c3c(cccc31)CN(C(=O)c1cccs1)CC2` came in with an RP-LC retention time of 876 s.

With `CCN1CCC2(CC1)N=C(c1ccc(F)cc1)CC(c1cccc(OC)c1O)N2` (stereo not given), the RP-LC retention time is 592 s.

In turn, `CCS(=O)(=O)N1CC(=O)N(c2ccc(Cl)cc2)C(C)(C(=O)NC2CCCCCCC2)C1` (stereo not given) came in with an RP-LC retention time of 993 s.

Compound `COc1ccc(-c2noc(Cn3nc(-c4ccc(Cl)cc4)ccc3=O)n2)cc1` displayed an RP-LC retention time of 1080 s.

Compound `O=C(Cn1nc(N2CCCCCC2)c2ccccc2c1=O)NCc1ccc(F)cc1` returned an RP-LC retention time of 1040 s.

`CSc1ccc(-c2nc3cnccn3c2NC2CCCCC2)cc1`: the RP-LC retention time came to 1010 s.

`COc1cc(C(=O)NCC(c2ccc3c(c2)OCO3)N2CCOCC2)cc(OC)c1OC` (stereo not given): the RP-LC retention time came out at 617 s.

On to `COc1ccc(CNC(=O)C2(C)CCCN(S(=O)(=O)c3ccc(Cl)cc3)C2)cc1` (stereo not given), for which the RP-LC retention time is 981 s.

On to `CCCNC(=O)c1ccc2c(c1)N(C)C(=O)CS2`, for which the RP-LC retention time stood at 843 s.

In turn, `O=C(CCn1nnc2cc(-c3noc(-c4ccc(Cl)cc4)n3)ccc21)N1CCCC1` registered an RP-LC retention time of 1010 s.

As to `Fc1ccccc1N1CCN(c2ncccc2-c2nc(-c3ccccc3)no2)CC1`, the RP-LC retention time is 1390 s.

For `CCc1nc2cc(N3CCC(C(=O)NCc4cc(F)ccc4F)CC3)cnc2nc1CC`, the RP-LC retention time came to 838 s.

As for `CC(=O)N1CCCc2cc(S(=O)(=O)CCC(=O)Nc3ccc(Br)cc3C)ccc21`, the RP-LC retention time was 829 s.

For `CCOc1cc(CNC(=O)C2CCCN(c3nc4ccccc4n(CC)c3=O)C2)ccc1OC` (stereo not given), the RP-LC retention time is 936 s.

Regarding `O=C(NCc1csc(C2CCCN(C(=O)c3ccc(F)cc3F)C2)n1)C1CC1` (stereo not given), the RP-LC retention time was 717 s.

Regarding `Cc1nc2cc(N3CCCC(C(=O)NCc4ccc(N(C)C)cc4)C3)cnc2nc1C` (stereo not given), the RP-LC retention time was found to be 586 s.
